Entries after “also recorded” stand apart in the source; their conditions may differ.
Columns and labels:
[1] = Stability evaluated on keratinocyte cultures; type: in vitro ADME; conditions: human, human neonatal keratinocyte cultures; keratinocyte cultures; 2 μM in medium CNT-057 with 0.1% pluronic acid, 0.1% DMSO; degradation kinetics over 24 hours; LC/MS/MS; read-out: half-life time (t1/2) (converted)
Procedure: (§1) The stability on keratinocyte cultures is evaluated using human neonatal keratinocytes (Cell'N Tech) cultured in a 75 cm^2 flask and detached at 90-100% of confluence with vegetable trypsin (trypLE GIBCO). The compound of formula (I) was tested at 2 μM in the medium CNT-057 (Cell'N Tech) supplemented with 0.1% pluronic acid in 24-well plates. The final DMSO concentration is 0.1%. Degradation kinetics are performed with a Tecan EVO robot over 24 hours. The samples taken are then assayed by LC/MS/MS (Micromass) in comparison with a calibration range of the test product, prepared under the same conditions as the samples (⅓ culture medium and ⅔ methanol). The chromatographic conditions are optimized for each product. An assay of the appearance of metronidazole is also performed using these same samples.

[2] = tested on: human neonatal keratinocytes; assay: Stability evaluated on keratinocyte cultures; type: in vitro ADME; conditions: over 24 hours
Procedure: as §1

Row | SMILES | half-life at 2 μM [1] | stability / hydrolysis of the ester on keratinocyte cultures (in words) [2] | melting point
1 | Cc1ncc([N+](=O)[O-])n1CCOC(=O)Cc1ccccc1Nc1c(Cl)cccc1Cl [compound of formula (I), 2-(2-methyl-5-nitroimidazol-1-yl)ethyl [2-(2,6-dichlorophenylamino)phenyl]acetate] | 8 h | specifically cleaved in keratinocytes | 122 to 124 °C
2 | Cc1ncc([N+](=O)[O-])n1CCOC(=O)c1cc(-c2ccc(F)cc2F)ccc1O [metronidazole ester with diflunisal] | – | stable in the presence of keratinocytes; also recorded: do not become hydrolysed | –
3 | COc1ccc2c(c1)c(CC(=O)OCCn1c([N+](=O)[O-])cnc1C)c(C)n2C(=O)c1ccc(Cl)cc1 [metronidazole ester with indomethacin] | – | stable in the presence of keratinocytes; also recorded: do not become hydrolysed | –
4 | Cc1ncc([N+](=O)[O-])n1CCOC(=O)C1CCn2c(C(=O)c3ccccc3)ccc21 (stereo not shown) [metronidazole ester with ketorolac] | – | stable in the presence of keratinocytes; also recorded: do not become hydrolysed | –
5 | Cc1ncc([N+](=O)[O-])n1CCOC(=O)c1cccnc1Nc1cccc(C(F)(F)F)c1 [metronidazole ester with niflumic acid] | – | stable in the presence of keratinocytes; also recorded: do not become hydrolysed | –
